The values that follow come from the supplement of paper PMC3974653.

Where a name gives a salt, the structure may show the parent alone. Bounds are passed on as bounds.

This test has as its system MTT (mouse pheochromocytoma). The experiment in a line: IC50 of cell viability (ATP content). Particulars: (24 or 48 h). The gist of the method: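 MTT mouse pheochromocytoma cells, cultured overnight at 37°C, 5% CO2 in DMEM with 5% FBS and 1% horse serum, were exposed in white 1536-well plates to library compounds in DMSO at final 0.5 nM to 46 µM (8 concentrations) for 24 or 48 hrs. CellTiter-Glo luminescence was normalised to positive-control (100%) and DMSO (0%) wells. A four-parameter logistic fit gave the IC50.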
As for `CC1(C(=O)O)CCC2(C)CCC3(C)C(=CC(=O)C4C5(C)CCC(O)C(C)(C)C5CCC43C)C2C1` (stereo not drawn) [18ALPHA-GLYCYRRHETINIC ACID], the “IC50 of cell viability” value is greater than 46 µM.

Consider `C[C@]12CCC3C(CCC4=CC(=O)CC[C@@H]43)C1CCC2O` (stereo not given in full) [19-Norandrostenolone], for which the “IC50 of cell viability” value was greater than 46 µM.

For `C[C@H](CCCC(C)(C)O)[C@H]1CC[C@H]2[C@@H]3CC=C4C[C@@H](O)CC[C@]4(C)[C@H]3CC[C@]12C` [25-Hydroxycholesterol], the “IC50 of cell viability” value is greater than 46 µM.

As to `CN1CCN([C@@H](c2ccccc2)c2ccc(Cl)cc2)CC1` [(1-[(4-Chlorophenyl)phenyl-methyl]-4-methylpiperazine)], the “IC50 of cell viability” value is greater than 46 µM.

Turning to `COc1ccc2c(c1OC)C(=O)O[C@H]2[C@@H]1c2cc3c(cc2CCN1C)OCO3` [(1S,9R)-beta-HYDRASTINE], the “IC50 of cell viability” value is greater than 46 µM.

Regarding `CCc1cc(OC)c(C[C@H](C)N)cc1OC` [(+)-2,5-Dimethoxy-4-ethylamphetamine], the “IC50 of cell viability” value is greater than 46 µM.

Take `COc1cc(C[C@H](C)N)c(OC)cc1C` [(+)-2,5-Dimethoxy-4-methylamphetamine]: the “IC50 of cell viability” value was greater than 46 µM.

Take `COc1ccc(OC)c(C[C@H](C)N)c1` [(+)-2,5-Dimethoxyamphetamine]: the “IC50 of cell viability” value is greater than 46 µM.

For the molecule `COc1cc(C[C@H](C)N)c(OC)cc1Br` [(+)-4-Bromo-2,5-dimethoxyamphetamine], the “IC50 of cell viability” value was greater than 46 µM.

As for `CCN[C@@H](C)Cc1cccc(C(F)(F)F)c1` [(+)-Fenfluramine], the “IC50 of cell viability” value is greater than 46 µM.

Turning to `CCN(CC)C(=O)[C@H]\1CN(C)[C@@H]\2CC3=C[NH]C4=C3C(=CC=C4)C2=C1` [(+)-Lysergic], the “IC50 of cell viability” value is greater than 46 µM.

As to `C[C@]12N[C@H](Cc3ccccc31)c1ccccc12` [(+)-MK 801], the “IC50 of cell viability” value was greater than 46 µM.

With `C[C@H]1[C@@H]2Cc3ccc(O)cc3[C@]1(C)CCN2C` [(+)-Metazocine], the “IC50 of cell viability” value was greater than 46 µM.

As for `CCN[C@@H](C)Cc1ccccc1` [(+)-N-Ethylamphetamine], the “IC50 of cell viability” value was greater than 46 µM.

Regarding `CN1CCC[C@@H]1c1cccnc1` [(+)-NICOTINE], the “IC50 of cell viability” value is greater than 46 µM.

With `CC(C)=CCN1CC[C@@]2(C)c3cc(O)ccc3C[C@H]1[C@@H]2C` [(+)-Pentazocine], the “IC50 of cell viability” value was greater than 46 µM.

As to `C[C@H]1[C@@H]2Cc3ccc(O)cc3[C@]1(C)CCN2CCc1ccccc1` [(+)-Phenazocine], the “IC50 of cell viability” value was greater than 46 µM.

Turning to `COc1cc2c3cc1Oc1cc(ccc1O)C[C@@H]1c4c(cc(OC)c(O)c4Oc4ccc(cc4)C[C@@H]3N(C)CC2)CC[N+]1(C)C` [(+)-TUBOCURARINE], the “IC50 of cell viability” value is greater than 46 µM.

In the case of `C[C@@H](N)[C@@H](O)c1ccc(O)c(O)c1` [(-)3,4-DIHYDROXYNOREPHEDRINE], the “IC50 of cell viability” value was greater than 46 µM.

For `CC(C)(C)NC[C@H](O)COc1cccc2c1CCCC2=O` [(-) -Levobunolol hydrochloride], the “IC50 of cell viability” value is greater than 46 µM.

As for `CN1C(=O)CC[C@H]1c1cccnc1` [(-)-COTININE], the “IC50 of cell viability” value is greater than 46 µM.

Take `CCCN1CCC[C@@H]2Cc3n[nH]cc3C[C@H]21` [(-)-QUINPIROLE]: the “IC50 of cell viability” value is greater than 46 µM.

On to `COc1cc(CC(C)N)cc(OC)c1OC` (stereo not given) [(?)-3,4,5-Trimethoxyamphetamine], for which the “IC50 of cell viability” value was greater than 46 µM.

On to `CNC(C)Cc1ccc2c(c1)OCO2` (stereo not given) [(?)-3,4-Methylenedioxymethamphetamine], for which the “IC50 of cell viability” value was greater than 46 µM.

Take `COc1cc(CC(C)N)cc2c1OCO2` (stereo not given) [(?)-3-Methoxy-4,5-methylenedioxyamphetamine]: the “IC50 of cell viability” value was greater than 46 µM.

`CC(CC(C#N)(c1ccccc1)c1ccccc1)N(C)C` (stereo not given) [(?)-4-Dimethylamino-2,2-diphenylvaleronitrile]: the “IC50 of cell viability” value is greater than 46 µM.

`CCC1(CCC(C)C)C(=O)NC(=O)NC1=O` [(?)-Amobarbital]: the “IC50 of cell viability” value is greater than 46 µM.

Regarding `Clc1ccc([C@H]2CC3CCC2N3)cn1` (stereo not given in full) [(?)-Epibatidine], the “IC50 of cell viability” value was greater than 46 µM.

In the case of `CNC(C)Cc1ccccc1` (stereo not given) [(?)-Methamphetamine], the “IC50 of cell viability” value was greater than 46 µM.

On to `CCNC(C)Cc1ccc2c(c1)OCO2` (stereo not given) [(?)-N-Ethyl-3,4-methylenedioxyamphetamine], for which the “IC50 of cell viability” value is greater than 46 µM.

`CC(Cc1ccc2c(c1)OCO2)NO` (stereo not given) [(?)-N-Hydroxy-3,4-methylenedioxyamphetamine]: the “IC50 of cell viability” value is greater than 46 µM.

As for `CN1CCN(C2Cc3ccccc3Sc3ccc(Cl)cc32)CC1.O=C(O)/C=C\C(=O)O` (stereo not given) [(?)-Octoclothepin maleate], the “IC50 of cell viability” value was greater than 46 µM.

Regarding `OC1\N=C(C2=CC=CC=C2)/C3=CC(=CC=C3NC1=O)Cl` (stereo not given) [(?)-Oxazepam], the “IC50 of cell viability” value was greater than 46 µM.

On to `CC1\N=C(N)/OC1C2=CC=CC=C2` (stereo not drawn) [(?)-cis-(4RS,5SR)-2-Amino-4-methyl-5-phenyl-2-oxazoline], for which the “IC50 of cell viability” value is greater than 46 µM.

Turning to `NC/C=C/C(=O)O` [(E)-4-amino-2-butenoic acid], the “IC50 of cell viability” value is greater than 46 µM.

Regarding `O=c1[nH]c(=O)n([C@H]2C[C@H](O)[C@@H](CO)O2)cc1/C=C/Br` [(E)-5-(2-Bromovinyl)-2'-deoxyuridine], the “IC50 of cell viability” value is greater than 46 µM.

Take `CCCCCC[C@@H](CCC)C(=O)O` [(R)-2-Propyloctanoic acid (Arundic Acid)]: the “IC50 of cell viability” value was greater than 46 µM.

`CC(N)C(=O)c1ccccc1` [(R)-(+)-Cathinone]: the “IC50 of cell viability” value is greater than 46 µM.

On to `CCCC1([C@H](O)C/C=C/[C@H]2[C@H](O)CC(=O)[C@@H]2CCCCCCC(=O)OC)CCC1` [(R)-Butaprost], for which the “IC50 of cell viability” value was greater than 46 µM.

Regarding `C[C@H](C1=NC=CC=C1)C/2=C(CCN(C)C)/CC3=CC=CC=C23` [(S)-(+)-Dimethindene maleate], the “IC50 of cell viability” value was greater than 46 µM.

With `C[C@H](N)C(=O)c1ccccc1` [(S)-(-)-Cathinone], the “IC50 of cell viability” value is greater than 46 µM.

For `CSCCC(NC(=O)[C@H](Cc1c[nH]c2ccccc12)NC(=O)CNC(=O)[C@H](CCSC)NC(=O)[C@H](Cc1ccc(O[S+](=O)([O-])O)cc1)NC(=O)[C@@H](N)CC(=O)O)C(=O)N[C@@H](CC(=O)O)C(=O)N[C@@H](Cc1ccccc1)C(N)=O` (stereo not given in full) [(Tyr[SO3H]27)Cholecystokinin fragment 26-33 Amide], the “IC50 of cell viability” value was greater than 46 µM.

As to `C[C@@H]1CCC[C@H](C)N1` [(cis-) Nanophine], the “IC50 of cell viability” value is greater than 46 µM.

Consider `COc1ccc2c(c1OC)CN1CCc3cc4c(cc3[C@H]1C2)OCO4` [(d,l)-Tetrahydroberberine], for which the “IC50 of cell viability” value was greater than 46 µM.

For `C\C1=C(/C)C(=O)\C(=C(\C)C1=O)CCCCC#CCCCC#CCO` [AA-861], the “IC50 of cell viability” value was greater than 46 µM.

On to `Nc1nc(NC2CC2)c2ncn([C@H]3C=C[C@@H](CO)C3)c2n1` [ABACAVIR SULFATE], for which the “IC50 of cell viability” value was greater than 46 µM.

Turning to `CC(=O)NCCCS(=O)(=O)[O-]` [ACAMPROSATE CALCIUM], the “IC50 of cell viability” value is greater than 46 µM.

On to `CCN(CC)CCNC(C(=O)OCCC(C)C)c1ccccc1` (stereo not given) [ACAMYLOPHENINE HYDROCHLORIDE], for which the “IC50 of cell viability” value was greater than 46 µM.

With `CCN(CC)CCNC(=O)c1ccc(NC(C)=O)cc1.Cl` [ACECAINIDE HYDROCHLORIDE], the “IC50 of cell viability” value is greater than 46 µM.

Consider `CC(=O)OC1CN2CCC1CC2` (stereo not given) [ACECLIDINE], for which the “IC50 of cell viability” value was greater than 46 µM.

As to `CC(=O)O[C@@H]1C(=O)O[C@H]2[C@@H]1OC(=O)[C@@H]2OC(C)=O` [ACEGLATONE], the “IC50 of cell viability” value was greater than 46 µM.

As for `CC(=O)Nc1ccc(OC(=O)c2ccccc2O)cc1` [ACETAMINOSALOL], the “IC50 of cell viability” value was greater than 46 µM.

For the molecule `CC(=O)Nc1cc([As](=O)(O)O)ccc1O` [ACETARSOL], the “IC50 of cell viability” value is greater than 46 µM.

As for `CC(=O)NO` [ACETOHYDROXAMIC ACID], the “IC50 of cell viability” value was greater than 46 µM.

As to `CC(=O)Nc1c(I)cc(I)c(C(=O)O)c1I` [ACETRIAZOIC ACID], the “IC50 of cell viability” value was greater than 46 µM.

Take `CC(=O)N[C@@H]1C(O)OC(CO)C(O)C1O` (stereo not given in full) [ACETYLGLUCOSAMINE]: the “IC50 of cell viability” value was greater than 46 µM.

`CCC(C(=O)NC(=O)NC(C)=O)c1ccccc1` (stereo not given) [ACETYLPHENETURIDE (CRAMPOL)]: the “IC50 of cell viability” value was greater than 46 µM.

`CC(=O)NCCCCCC(=O)O` [ACEXAMIC ACID]: the “IC50 of cell viability” value is greater than 46 µM.

Consider `CC(=O)NC1[C@H](O)C[C@@](O)(C(=O)O)O[C@H]1[C@H](O)[C@H](O)CO` (stereo not given in full) [ACIDUM ACENEURAMICUM], for which the “IC50 of cell viability” value is greater than 46 µM.

In the case of `COc1ccc(C(=O)/C(Br)=C/C(=O)O)cc1` [ACIDUM BROMEBRICUM], the “IC50 of cell viability” value is greater than 46 µM.

On to `COc1cc(C(=O)NCCCCCC(=O)O)cc(OC)c1OC` [ACIDUM CAPOBENICUM], for which the “IC50 of cell viability” value is greater than 46 µM.

For `Cc1cccc(Nc2ncccc2C(=O)O)c1C` [ACIDUM NIXYLICUM], the “IC50 of cell viability” value was greater than 46 µM.

In the case of `O=C(O)COc1ccc(C(=O)c2cccs2)c(Cl)c1Cl` [ACIDUM TIENILICUM], the “IC50 of cell viability” value is greater than 46 µM.

Consider `COc1cc(C)c(/C=C/C(C)=C/C=C/C(C)=C/C(=O)O)c(C)c1C` [ACITRETIN], for which the “IC50 of cell viability” value was greater than 46 µM.

As to `N[C@H]([C@@H]1C\C(=N/O1)Cl)C(O)=O` [ACIVICIN], the “IC50 of cell viability” value is greater than 46 µM.
